Data: patent US10688110B2 (NanGenex Nanotechnology Incorporated, priority 2015, dated 2020)
Like-named read-outs stand apart in the source and are kept apart here.

Experiments:
PAMPA permeability = assay type: in vitro ADME; conditions: pH 7, simulated saliva condition
[1] = healthy subjects, within the clinical dose range; cited from earlier work
[2] = cited from earlier work
[3] = cited from earlier work; remark: listed apart in the source
[4] = single oral dose of radiolabeled drug

For `Cc1ccc(-c2cc(C(F)(F)F)nn2-c2ccc(S(N)(=O)=O)cc2)cc1` [Celecoxib, 4-[5-(4-methylphenyl)-3-(trifluoromethyl)-1H-pyrazol-1-yl] benzenesulfonamide], the Papp (PAMPA permeability) is given as 0.3 ×10⁻⁶ cm/s, the protein bound [1] is given as about 97% and the “time of peak plasma levels” value ([2]; after an oral dose) is given as “approximately 3 hrs”. For the same compound, the effective half-life ([2]; fasted conditions) was “approximately 11 hours”, the “dose proportionality of Cmax and AUC” value ([2]; fasting conditions, up to 200 mg BID) was “roughly dose-proportional” and the “overall systemic exposure (AUC), intact capsule vs capsule contents sprinkled on applesauce” value ([2]; healthy adult volunteers) was “equivalent”. For the same compound, the “apparent plasma clearance (CL/F)” value ([2]; human, in vivo) was “about 500 mL/min”, the “unchanged drug recovered in the urine and feces” value ([2]; human, in vivo) was under 3% and the steady-state conditions reached ([2]; multiple dosing) was at most 5 days. The “time of peak plasma levels” value ([2]; single dose of 200 mg of current formulation, oral) was 3 h, the “onset of pain relief” value ([2]; single dose of 200 mg of current formulation) was at least 1 h and the “dose excreted in the feces” value [2, 4] was “approximately 57%”. For the same compound, the “dose excreted into the urine” value [2, 4] was 27%, the “solubility in methanol and chloroform” value [3] was “soluble” and the solubility in water [3] was “insoluble”.
